In PMC11866180, “Facile Synthesis of Carbamoyl Fluorides viaN-Carbamoylimidazole Activation” (ACS Omega, 2025) one finds IC50 and activity data, which are given here for eleven compounds.

Holding throughout (test): Ellman assay, […] nm
Format in all cases: biochemical
(In general: Ellman's reagent forms a yellow product with free thiols.)

In assay [1] the target is T1, hBChE (human butyrylcholinesterase) (Homo sapiens, UniProt P06276).
T1 construct: gene BCHE

Assay [2] addresses T2, hAChE (human acetylcholinesterase) (Homo sapiens, UniProt P22303).
T2 construct: gene ACHE

The target in assay [3] is T1, hBChE (human butyrylcholinesterase). This is another data set of the same source.

Read-outs that look alike come from different tables or passages of the source.

T1 sequence (P06276 29-602): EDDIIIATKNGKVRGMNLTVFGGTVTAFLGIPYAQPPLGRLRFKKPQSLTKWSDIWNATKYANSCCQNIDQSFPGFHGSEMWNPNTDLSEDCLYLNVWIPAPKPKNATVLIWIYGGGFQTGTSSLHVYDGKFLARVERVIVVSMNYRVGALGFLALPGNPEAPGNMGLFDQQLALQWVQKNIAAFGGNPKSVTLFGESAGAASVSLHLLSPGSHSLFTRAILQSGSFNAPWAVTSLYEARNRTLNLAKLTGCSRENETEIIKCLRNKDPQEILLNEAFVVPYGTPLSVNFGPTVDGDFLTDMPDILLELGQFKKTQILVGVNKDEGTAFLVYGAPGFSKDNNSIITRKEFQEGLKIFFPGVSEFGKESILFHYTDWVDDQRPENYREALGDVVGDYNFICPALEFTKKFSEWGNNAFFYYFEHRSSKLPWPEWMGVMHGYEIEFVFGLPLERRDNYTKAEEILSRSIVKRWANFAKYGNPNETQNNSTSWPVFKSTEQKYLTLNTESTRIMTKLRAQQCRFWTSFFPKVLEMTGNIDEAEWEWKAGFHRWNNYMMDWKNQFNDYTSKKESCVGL
T2 sequence (P22303 32-614): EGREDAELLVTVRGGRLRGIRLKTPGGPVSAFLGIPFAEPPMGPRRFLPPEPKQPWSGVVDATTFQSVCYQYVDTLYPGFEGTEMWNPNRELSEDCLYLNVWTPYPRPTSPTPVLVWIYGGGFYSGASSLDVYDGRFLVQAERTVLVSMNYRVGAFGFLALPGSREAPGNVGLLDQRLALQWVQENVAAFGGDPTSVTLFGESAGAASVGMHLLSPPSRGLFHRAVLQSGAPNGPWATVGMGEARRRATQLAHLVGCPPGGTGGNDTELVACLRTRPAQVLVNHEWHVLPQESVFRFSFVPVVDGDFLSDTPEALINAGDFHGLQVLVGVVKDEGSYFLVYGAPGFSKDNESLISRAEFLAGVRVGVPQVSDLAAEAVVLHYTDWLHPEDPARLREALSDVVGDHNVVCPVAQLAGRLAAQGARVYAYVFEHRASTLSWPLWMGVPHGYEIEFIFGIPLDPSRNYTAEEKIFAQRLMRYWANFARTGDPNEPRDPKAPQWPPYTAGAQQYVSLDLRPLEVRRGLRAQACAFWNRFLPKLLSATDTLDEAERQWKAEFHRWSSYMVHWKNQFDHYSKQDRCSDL

As for `O=C(F)N(Cc1ccccc1)Cc1ccccc1` [3b, Dibenzylcarbamic Fluoride], the values for the IC50 in assay [1] (read-out: hBChE) and in assay [2] (read-out: hAChE) were 0.0696 ± 0.004 µM and 2.2 ± 0.27 µM, respectively.
On to `O=C(F)N1CCC(c2c[nH]c3ccccc23)CC1` [3h, 4-(1H-Indol-3-yl)piperidine-1-carbonyl Fluoride], for which the results for the IC50 in assay [1] and in assay [2] were 0.0235 ± 0.0046 µM and 18.7 µM, respectively.
On to `O=C(F)N1CCC(Cc2ccccc2)CC1` [3g, 4-Benzylpiperidine-1-carbonyl Fluoride], for which the IC50 in assay [1] (read-out: hBChE) turned out to be 0.00278 ± 0.00015 µM; in assay [2] (read-out: hAChE) it was 0.554 ± 0.079 µM.
For `O=C(F)N1Cc2ccccc2C1` [3e, Isoindoline-2-carbonyl Fluoride] the same measures were 32.2 µM and 103 µM.
With `CCCCN(Cc1ccccc1)C(=O)F` [3c, Benzyl(butyl)carbamic Fluoride], the IC50 in assay [1] was determined as 2.43 ± 0.4 µM; in assay [2], 4.48 ± 1.14 µM.
As to `CN(Cc1ccccc1)C(=O)F` [3a, Benzyl(methyl)carbamic Fluoride], the IC50 in assay [1] (read-out: hBChE) is 0.156 ± 0.009 µM; in assay [2] (read-out: hAChE), 5.65 ± 0.947 µM.
Take `C#CCCCCCCCCCN(C)C(=O)F` [3i, Methyl(undec-10-yn-1-yl)carbamic Fluoride]: the results for the IC50 in assay [1] and in assay [2] were 0.197 ± 0.036 µM and 5.07 ± 1.15 µM, respectively.
With `CN(C(=O)F)c1cccc2cc[nH]c12` [3k, (1H-Indol-7-yl)(methyl)carbamic Fluoride], the IC50 is 0.00556 ± 0.00083 µM in assay [1] (read-out: hBChE) and 0.151 ± 0.008 µM in assay [2] (read-out: hAChE).
For `O=C(F)N1CCc2ccccc2C1` [3f, 3,4-Dihydroisoquinoline-2(1H)-carbonyl Fluoride] the same measures were 0.707 ± 0.122 µM and 22.6 µM.
As to `O=C(F)N1CCN(c2ccccc2F)CC1` [3j, 4-(2-Fluorophenyl)piperazine-1-carbonyl Fluoride], the IC50 in assay [1] worked out at 0.656 ± 0.032 µM; in assay [2] it was 10.7 µM.
In the case of `O=C(F)N1CCc2ccccc21` [3d, Indoline-1-carbonyl Fluoride], the activity at 100 µM in assay [3] was 56.2 ± 3.7%. Also, in assay [2] (read-out: hAChE), the IC50 is 4.62 ± 1.15 µM.
